Reference: patent US20210163896A1, “METHOD FOR PRODUCING ANIMAL CELL CONTAINING DNA OF INTEREST USING MICRONUCLEATE CELL FUSION METHOD” (NATIONAL UNIVERSITY CORPORATION TOTTORI UNIVERSITY, priority 2018, published 2021)

Key:
[1] = test system: Human immortalized mesenchymal stem cells (hiMSC); assay: Micronucleation induction in human immortalized mesenchymal stem cells, DAPI staining; format: cell-based; details: 48 hours
Method: Human immortalized mesenchymal stem cells (hiMSC: provided by Dr. Toguchida, Kyoto University) were seeded in individual wells of a 6-well plate at a density of 5×10^5 cells per well and cultured at 37° C. in the condition of 5% CO2 for 24 hours. For the micro nucleation induction experiment, 26 conditions in total were designed based on treatments with colcemid (0.05 μg/mL, 0.1 μg/mL, 0.2 μg/mL), MAS (0.1 μg/mL, 0.2 μg/mL, 0.4 μg/mL) and paclitaxel (0.8 nM, 4 nM, 20 nM, 100 nM, 400 nM), with the addition of reversine (no addition, 500 nM, 1000 nM, 1500 nM) during the treatments, and the cells were cultured at 37° C. in the condition of 5% CO2 for 48 hours.
In order to observe living cells after micronucleation induction, the cells were fixed with 4% paraformaldehyde and stained with DAPI (concentration: 1 μg/mL) for 15 minutes. The fixed cells were observed by fluorescence microscopy and the micronuclear formation induction rates were compared. Whether or not micronuclei were formed in individual cells was observed and the results are shown in a figure (FIG. 2).

Human iPS cells = assay: Micronucleation induction in human iPS cells, microscopic observation; format: cell-based; details: 48 hours, MAS 0.2 μg/mL compared to colcemid 0.25 μg/mL, paclitaxel 20-400 nM, reversine 0-1500 nM added
Method: Human iPS cells were seeded to a 6-well plate previously coated with 0.5 μg/cm^2 Laminin™-511 (Nippi. Inc.) at a density of 5×10^5 cells per well, and 10 μM Y-27632 was added. The human iPS cells were incubated at 37° C. in the condition of 5% CO2 for 24 hours. For a micronucleation induction experiment, 22 conditions in total were designed based on treatments with colcemid 0.25 μg/mL, MAS 0.2 μg/mL or paclitaxel (20 nM, 40 nM, 60 nM, 100 nM, 400 nM) with the addition of reversine (no addition, 500 nM, 1000 nM, 1500 nM) during the treatments, and the cells were cultured at 37° C. in the condition of 5% CO2 for 48 hours.
After micronucleation induction, the micronucleation induction rates were compared based on microscopic observation.

CHO MHG#4a cells = assay: Micronucleation induction in CHO cells, fluorescence-microscopic observation; format: cell-based, Chinese hamster; details: 72 hours, paclitaxel 0-1920 nM, reversine 0-12288 nM
Method: Ninety six conditions, which were designed by combinations of paclitaxel (0 nM, 96 nM, 192 nM, 384 nM, 768 nM, 1152 nM, 1536 nM, 1920 nM) and reversine (0 nM, 192 nM, 384 nM, 768 nM, 1536 nM, 3072 nM, 4608 nM, 6144 nM, 7680 nM, 9216 nM, 10752 nM, 12288 nM), were assigned to the wells. Culture was carried out at 37° C. in the condition of 5% CO2 for 72 hours.
After micronucleation induction, the micronucleation induction rates were compared based on observation by fluorescence microscopy.

SMILES	micronucleation induction, usefulness of agent [1]	micronucleation induction rate (Human iPS cells)	micronucleation rate (CHO MHG#4a cells)
CC(=O)O[C@H]1C(=O)[C@@]2(C)[C@H]([C@H](OC(=O)c3ccccc3)[C@]3(O)C[C@H](OC(=O)[C@H](O)[C@@H](NC(=O)c4ccccc4)c4ccccc4)C(C)=C1C3(C)C)[C@]1(OC(C)=O)CO[C@@H]1C[C@@H]2O [paclitaxel]	effective	micronucleation rate increases in a concentration dependent manner	micronucleation rate increases in a concentration dependent manner
c1nc2nc(Nc3ccc(N4CCOCC4)cc3)nc(NC3CCCCC3)c2[nH]1 [reversine]	useful	useful	micronucleation rate increases in a concentration dependent manner
